Measurements taken from US9309263B2, “Fused multi-cyclic sulfone compounds as inhibitors of beta-secretase and methods of use thereof” (AMGEN INC., priority 2013, dated 2016).
Read-outs that look alike come from different tables or passages of the source.

Key:
[1] = system: Aβ 40 in conditioned medium of cells stably expressing Amyloid Precursor Protein (APP); assay: In vitro BACE cell-based assay (Aβ 40 sandwich ELISA); details: Homo sapiens, HEK293
Procedure, shortened: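 APP-expressing cells, 24 h pre-culture in DMEM/10% FBS, treated 24 h with 10-point compound dilutions from 100 or 10 μM top, 0.1% DMSO final. Secreted Aβ40 quantified by sandwich ELISA (pAb40 capture, biotinylated 6E10 detection, europium TRF); IC50 from percent inhibition versus concentration.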

[2] = molecular target: Cathepsin D (Cat D) (Homo sapiens, UniProt P07339); assay: In vitro enzymatic Cathepsin D (Cat D) FRET assay; format: biochemical
Cathepsin D (Cat D), sequence (P07339 65-412, species assumed): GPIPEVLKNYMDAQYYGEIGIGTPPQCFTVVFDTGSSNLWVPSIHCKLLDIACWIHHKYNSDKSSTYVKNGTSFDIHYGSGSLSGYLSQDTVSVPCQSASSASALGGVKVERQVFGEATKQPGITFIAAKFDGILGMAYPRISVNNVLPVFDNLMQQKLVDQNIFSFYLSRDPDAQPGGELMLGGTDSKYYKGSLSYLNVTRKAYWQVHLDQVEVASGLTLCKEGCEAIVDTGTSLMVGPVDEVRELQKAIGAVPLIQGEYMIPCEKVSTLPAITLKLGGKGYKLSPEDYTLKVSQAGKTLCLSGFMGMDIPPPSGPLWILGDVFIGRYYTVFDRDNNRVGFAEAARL
Procedure, shortened: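 Recombinant CHO-expressed enzyme (9 nM) pre-incubated 1 h with serially diluted inhibitor in 0.05 M citrate pH 3.5, 10% DMSO final, 5 mM CHAPS. Reaction started with 20 nM FRET peptide substrate, run 1 h, stopped with Tris to neutral pH; fluorescence read at ex 500/em 580 nm.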

[3] = molecular target: Beta Secretase enzyme (BACE) (Homo sapiens, UniProt P56817); assay: In vitro enzymatic BACE FRET assay; format: biochemical; details: read-out: BACE1 FRET assay IC50
Beta Secretase enzyme (BACE), sequence (P56817 46-501): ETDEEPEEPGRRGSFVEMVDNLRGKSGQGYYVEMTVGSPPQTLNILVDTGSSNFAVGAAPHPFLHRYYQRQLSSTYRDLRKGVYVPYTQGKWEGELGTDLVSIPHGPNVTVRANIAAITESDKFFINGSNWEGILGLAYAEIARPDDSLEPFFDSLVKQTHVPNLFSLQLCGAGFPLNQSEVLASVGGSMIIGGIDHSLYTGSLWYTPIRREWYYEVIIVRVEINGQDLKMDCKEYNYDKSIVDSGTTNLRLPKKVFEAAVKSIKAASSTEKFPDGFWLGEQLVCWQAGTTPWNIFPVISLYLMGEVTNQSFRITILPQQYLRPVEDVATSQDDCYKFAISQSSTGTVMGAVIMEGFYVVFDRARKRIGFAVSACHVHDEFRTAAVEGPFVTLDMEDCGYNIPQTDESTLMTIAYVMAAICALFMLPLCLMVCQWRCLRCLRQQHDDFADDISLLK
Procedure, shortened: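 Enzyme (0.2 nM) pre-incubated 1 h with serially diluted inhibitors in 0.05 M acetate pH 4.2, 10% DMSO, 100 uM genapol. Reaction started with 50 nM fluorophore/quencher peptide FRET substrate, run 1 h, stopped with Tris to neutral pH. Fluorescence read at excitation 488 nm, […].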

[4] = average IC50, HEK cell assay, Aβ 40 readout
[5] = Cathepsin D FRET assay, read-out: CatD IC50
[6] = text summary referring to data in Table 2
[7] = average IC50, in vitro enzymatic BACE FRET assay

SMILES: CCc1cc(Cl)cnc1C(=O)Nc1ccc2c(c1)[C@@]1(C)N=C(N)C(C)(C)S(=O)(=O)[C@@H]1CCO2 [Example 31, N-((4aR,11bR)-2-amino-3,3,11b-trimethyl-4,4-dioxido-4a,5,6,11b-tetrahydro-3H-benzo[6,7]oxepino[4,5-b][1,4]thiazin-10-yl)-5-chloro-3-ethylpicolinamide]
- IC50 ([1]; HEK cell, average IC50): 0.016 µM
- IC50 ([2]; read-out: CatD IC50): 226 µM
- IC50 ([3]; average IC50): 0.015 µM

SMILES: CC#C[C@H](C)Oc1cnc2c(Nc3ccc4c(c3)[C@@]3(C)N=C(N)C(C)(C)S(=O)(=O)[C@@H]3CCO4)ncc(F)c2c1 (single isomer, unassigned) [Example 70]
- IC50 ([1]; HEK cell, average IC50): 0.026 µM
- IC50 ([2]; read-out: CatD IC50): 237 µM
- IC50 ([3]; average IC50): 0.003 µM

SMILES: COc1cnc2c(Nc3ccc4c(c3)[C@@]3(C)N=C(N)C(C)(C)S(=O)(=O)[C@@H]3CCC4)nccc2n1 [Example 48, (4aR,11bR)-N^~10^~-(2-methoxypyrido[3,4-b]pyrazin-5-yl)-3,3,11b-trimethyl-3,4a,5,6,7,11b-hexahydrobenzo[3,4]cyclohepta[1,2-b][1,4]thiazine-2,10-diamine 4,4-dioxide]
- IC50 ([1]; HEK cell, average IC50): 0.041 µM
- IC50 ([2]; read-out: CatD IC50): 393 µM
- IC50 ([3]; average IC50): 0.041 µM

SMILES: COc1cnc(C(=O)Nc2ccc3c(c2)[C@@]2(C)N=C(N)C(C)(C)S(=O)(=O)[C@@H]2CC(C)(C)O3)cn1 [Example 100, N-((4aR,11bR)-2-amino-3,3,6,6,11b-pentamethyl-4,4-dioxido-4a,5,6,11b-tetrahydro-3H-[1]benzoxepino[4,5-b][1,4]thiazin-10-yl)-5-methoxy-2-pyrazinecarboxamide]
- IC50 [1, 4]: 0.012 µM
- IC50 [2, 5]: 1340 µM
- IC50 [2, 6]: > 1200 µM
- IC50 [3, 7]: 0.025 µM

SMILES: Cc1cc(Cl)cnc1C(=O)Nc1ccc2c(c1)[C@@]1(C)N=C(N)C(C)(C)S(=O)(=O)[C@]1(F)CCO2 [Example 65, N-((4aR,11bR)-2-amino-4a-fluoro-3,3,11b-trimethyl-4,4-dioxido-4a,5,6,11b-tetrahydro-3H-[1]benzoxepino[4,5-b][1,4]thiazin-10-yl)-5-chloro-3-methyl-2-pyridinecarboxamide]
- IC50 ([1]; HEK cell, average IC50): 0.074 µM
- IC50 ([2]; read-out: CatD IC50): 324 µM
- IC50 ([3]; average IC50): 0.006 µM

SMILES: C#CCOc1cnc2c(Nc3ccc4c(c3)[C@@]3(C)N=C(N)C(C)(C)S(=O)(=O)[C@@H]3CC(C)(C)O4)nccc2n1 [Example 141, (4aR,11bR)-3,3,6,6,11b-pentamethyl-N^~10^~-(2-(2-propyn-1-yloxy)pyrido[3,4-b]pyrazin-5-yl)-4a,5,6,11b-tetrahydro-3H-[1]benzoxepino[4,5-b][1,4]thiazine-2,10-diamine 4,4-dioxide]
- IC50 [1, 4]: 0.017 µM
- IC50 [2, 5]: 385 µM
- IC50 [3, 7]: 0.004 µM

SMILES: Cc1cc(Cl)cnc1C(=O)Nc1ccc2c(c1)[C@@]1(C)N=C(N)C(C)(C)S(=O)(=O)[C@@H]1CCC2 [Example 11, N-((4aR,11bR)-2-amino-3,3,11b-trimethyl-4,4-dioxido-3,4a,5,6,7,11b-hexahydrobenzo[3,4]cyclohepta[1,2-b][1,4]thiazin-10-yl)-5-chloro-3-methyl-2-pyridinecarboxamide]
- IC50 ([1]; HEK cell, average IC50): 0.008 µM
- IC50 ([2]; read-out: CatD IC50): 217 µM
- IC50 ([3]; average IC50): 0.005 µM

SMILES: Cc1cc(Cl)cnc1C(=O)Nc1ccc2c(c1)[C@]1(C)N=C(N)C(C)(C)S(=O)(=O)[C@H]1CCO2 [Example 17, N-((4aS,11bS)-2-amino-3,3,11b-trimethyl-4,4-dioxido-4a,5,6,11b-tetrahydro-3H-benzo[6,7]oxepino[4,5-b][1,4]thiazin-10-yl)-5-chloro-3-methylpicolinamide]
- IC50 ([1]; HEK cell, average IC50): 0.833 µM
- IC50 ([2]; read-out: CatD IC50): > 400 µM
- IC50 ([3]; average IC50): 1.46 µM

SMILES: COc1cnc2c(Nc3ccc4c(c3)[C@@]3(C)N=C(N)C(C)(C)S(=O)(=O)[C@@H]3CCO4)ncc(F)c2c1 [Example 177, (4aR,11bR)-N^~10^~-(5-fluoro-3-methoxy-1,7-naphthyridin-8-yl)-3,3,11b-trimethyl-4a,5,6,11b-tetrahydro-3H-[1]benzoxepino[4,5-b][1,4]thiazine-2,10-diamine 4,4-dioxide]
- IC50 ([1]; HEK cells, average IC50): 0.111 µM
- IC50 ([2]; read-out: CatD IC50): 314 µM
- IC50 ([3]; average IC50): 0.018 µM

SMILES: Cc1cc(Cl)cnc1C(=O)Nc1ccc2c(c1)[C@@]1(C)N=C(N)C(C)(C)S(=O)(=O)[C@]1(C)CCO2 [Example 27, N-((4aR,11bR)-2-amino-3,3,4a,11b-tetramethyl-4,4-dioxido-4a,5,6,11b-tetrahydro-3H-[1]benzoxepino[4,5-b][1,4]thiazin-10-yl)-5-chloro-3-methyl-2-pyridinecarboxamide]
- IC50 ([1]; HEK cell, average IC50): 0.264 µM
- IC50 ([2]; read-out: CatD IC50): 553 µM
- IC50 ([3]; average IC50): 0.15 µM

SMILES: CC1(C)C(N)=N[C@]2(C)c3cc(Nc4nccc5cc(C#N)cnc45)ccc3OCC[C@H]2S1(=O)=O [Example 168, 8-(((4aR,11bR)-2-amino-3,3,11b-trimethyl-4,4-dioxido-4a,5,6,11b-tetrahydro-3H-[1]benzoxepino[4,5-b][1,4]thiazin-10-yl)amino)-1,7-naphthyridine-3-carbonitrile]
- IC50 ([1]; HEK cells, average IC50): 0.003 µM
- IC50 ([2]; read-out: CatD IC50): > 44.4 µM
- IC50 ([3]; average IC50): 0.002 µM

SMILES: C[C@H]1C[C@@H]2[C@](C)(N=C(N)C(C)(C)S2(=O)=O)c2cc(NC(=O)c3cnc(OCc4cnn(C)c4)cn3)ccc2O1 [Example 81, N-((4aR,6S,11bR)-2-amino-3,3,6,11b-tetramethyl-4,4-dioxido-4a,5,6,11b-tetrahydro-3H-[1]benzoxepino[4,5-b][1,4]thiazin-10-yl)-5-((1-methyl-1H-pyrazol-4-yl)methoxy)-2-pyrazinecarboxamide]
- IC50 [1, 4]: 0.072 µM
- IC50 [2, 5]: 1310 µM
- IC50 [2, 6]: > 1200 µM
- IC50 [3, 7]: 0.016 µM

SMILES: Cc1cc(Cl)cnc1C(=O)Nc1ccc2c(c1)[C@@]1(C)N=C(N)C(C)(C)S(=O)(=O)[C@@H]1C[C@H](C)O2 [Example 189, N-((4aR,6S,11bR)-2-amino-3,3,6,11b-tetramethyl-4,4-dioxido-4a,5,6,11b-tetrahydro-3H-[1]benzoxepino[4,5-b][1,4]thiazin-10-yl)-5-chloro-3-methyl-2-pyridinecarboxamide]
- IC50 ([1]; HEK cells, average IC50): 0.001 µM
- IC50 ([2]; read-out: CatD IC50): 191 µM
- IC50 ([3]; average IC50): 0.003 µM

SMILES: CC#CCOc1cnc(C(=O)Nc2ccc3c(c2)[C@@]2(C)N=C(N)C(C)(C)S(=O)(=O)[C@@H]2CCO3)cn1 [Example 191, N-((4aR,11bR)-2-amino-3,3,11b-trimethyl-4,4-dioxido-4a,5,6,11b-tetrahydro-3H-[1]benzoxepino[4,5-b][1,4]thiazin-10-yl)-5-(2-butyn-1-yloxy)-2-pyrazinecarboxamide]
- IC50 ([1]; HEK cells, average IC50): 0.0003 µM
- IC50 ([2]; read-out: CatD IC50): 624 µM
- IC50 ([3]; average IC50): 0.0007 µM

SMILES: CC1(C)C(N)=N[C@]2(C)c3cc(NC(=O)c4ccc(C#CC5CC5)cn4)ccc3OCC[C@H]2S1(=O)=O [Example 193, N-((4aR,11bR)-2-amino-3,3,11b-trimethyl-4,4-dioxido-4a,5,6,11b-tetrahydro-3H-[1]benzoxepino[4,5-b][1,4]thiazin-10-yl)-5-(cyclopropylethynyl)-2-pyridinecarboxamide]
- IC50 ([1]; HEK cells, average IC50): 0.006 µM
- IC50 ([2]; read-out: CatD IC50): 995 µM
- IC50 ([3]; average IC50): 0.004 µM

SMILES: COc1cnc(C(=O)Nc2ccc3c(c2)[C@@]2(C)N=C(N)C(C)(C)S(=O)(=O)[C@H]2CCC3)cn1 [Example 8, N-((4aS,11bR)-2-amino-3,3,11b-trimethyl-4,4-dioxido-3,4a,5,6,7,11b-hexahydrobenzo[3,4]cyclohepta[1,2-b][1,4]thiazin-10-yl)-5-methoxy-2-pyrazinecarboxamide]
- IC50 ([1]; HEK cell, average IC50): 0.031 µM
- IC50 ([2]; read-out: CatD IC50): 1890 µM
- IC50 [2, 6]: > 1200 µM
- IC50 ([3]; average IC50): 0.172 µM
